{
  "source": "patent US8334268B2",
  "about": "“Insecticidal active ingredient combinations (formononetins + insecticides)” (priority 2006, dated 2012)",
  "system": "Meloidogyne incognita",
  "assay": "Meloidogyne incognita test (MELGIN), gall formation on lettuce roots",
  "type": "in vivo",
  "details": "0.5 mg ai/seed, lettuce seed dressing; nematicidal action by formation of galls; 100% = no galls",
  "description": "To produce a suitable preparation of active compound, 1 part by weight of active compound is mixed with the stated amounts of solvent and emulsifier, and the concentrate is diluted with water to the desired concentration.\nLettuce seeds are dressed with the desired amount of formononetin. Vessels are filled with soil infected with mycorrhiza, active compound solution, Meloidogyne incognita egg/larvae suspension and the treated lettuce seeds. The lettuce seeds germinate and the plants develop. On the roots, galls are formed.\nAfter the desired period of time, the nematicidal action is determined in % by the formation of galls. 100% means that no galls have been found; 0% means that the number of galls on the treated plants corresponds to that of the untreated control.",
  "data": [
    {"smiles": "COc1ccc(-c2coc3cc(O)ccc3c2=O)cc1", "note": "[Formononetin of the formula (I), formononetin]", "values": [
      {"measurement": "Effect in % after 21 d", "result": 3.3, "unit": "%"}
    ]}
  ]
}
